Data on 2 molecules can be found in ChEMBL document CHEMBL4387741, “Optimization of novel reversible Bruton's tyrosine kinase inhibitors identified using Tethering-fragment-based screens” (Bioorg Med Chem, 2019).

In experiment [1] the target is RAC-alpha serine/threonine-protein kinase (Homo sapiens) (UniProt P31749). The experiment in a line: Inhibition of wild-type human partial length AKT1 expressed in bacterial expression system at 10 uM by Kinomescan method relative to control.
The test system of experiment [2] is ALK tyrosine kinase receptor (Homo sapiens), Q9UM73 [C1156Y]. The experiment in a line: Inhibition of wild-type human partial length ALK C1156Y mutant (I1088 to E1409 residues) expressed in mammalian expression system at 10 uM by Kinomescan method relative to control.
Experiment [3] concerns the target Cyclin-dependent kinase-like 3 (Homo sapiens) (UniProt Q8IVW4). As to the kind of experiment: Inhibition of wild-type human partial length CDKL3 (M1 to D327 residues) expressed in bacterial expression system at 10 uM by Kinomescan method relative to control.
In experiment [4] the target is Serine/threonine-protein kinase 17B (Homo sapiens) (UniProt O94768). As to the kind of experiment: Inhibition of wild-type human full length DRAK2 (M1 to C372 residues) expressed in bacterial expression system at 10 uM by Kinomescan method relative to control.
Experiment [5] deals with Dual specificity tyrosine-phosphorylation-regulated kinase 1A (Homo sapiens) (UniProt Q13627). The experiment in a line: Inhibition of wild-type human partial length DYRK1A (H129 to S509 residues) expressed in mammalian expression system at 10 uM by Kinomescan method relative to control.
In experiment [6] the target is Mitogen-activated protein kinase kinase kinase kinase 1 (Homo sapiens) (UniProt Q92918). The experiment in a line: Inhibition of wild-type human full length HPK1 (M1 to R799 residues) expressed in bacterial expression system at 10 uM by Kinomescan method relative to control.
The test system of experiment [7] is Mast/stem cell growth factor receptor Kit (Homo sapiens), P10721 [D816H]. The experiment in a line: Inhibition of human partial length KIT D816H mutant (I571 to D952 residues) expressed in mammalian expression system at 10 uM by Kinomescan method relative to control.
For experiment [8], the target named is Serine/threonine-protein kinase 26 (Homo sapiens) (UniProt Q9P289). As to the kind of experiment: Inhibition of wild-type human full length MST4 (M1 to P416 residues) expressed in mammalian expression system at 10 uM by Kinomescan method relative to control.
In experiment [9] the target is Serine/threonine-protein kinase Nek11 (Homo sapiens) (UniProt Q8NG66). The experiment in a line: Inhibition of wild-type human partial length NEK11 (M1 to E313 residues) expressed in mammalian expression system at 10 uM by Kinomescan method relative to control.
Experiment [10] deals with Mitogen-activated protein kinase 14 (Homo sapiens) (UniProt Q16539). As to the kind of experiment: Inhibition of wild-type human full length p38-alpha (M1 to S360 residues) expressed in bacterial expression system at 10 uM by Kinomescan method relative to control.
Experiment [11] deals with Serine/threonine-protein kinase D3 (Homo sapiens) (UniProt O94806). The experiment in a line: Inhibition of wild-type human partial length PRKD3 (S543 to E863 residues) expressed in bacterial expression system at 10 uM by Kinomescan method relative to control.
Sequence of Serine/threonine-protein kinase D3 (Homo sapiens) (O94806 whole entry, the tested form may be a part): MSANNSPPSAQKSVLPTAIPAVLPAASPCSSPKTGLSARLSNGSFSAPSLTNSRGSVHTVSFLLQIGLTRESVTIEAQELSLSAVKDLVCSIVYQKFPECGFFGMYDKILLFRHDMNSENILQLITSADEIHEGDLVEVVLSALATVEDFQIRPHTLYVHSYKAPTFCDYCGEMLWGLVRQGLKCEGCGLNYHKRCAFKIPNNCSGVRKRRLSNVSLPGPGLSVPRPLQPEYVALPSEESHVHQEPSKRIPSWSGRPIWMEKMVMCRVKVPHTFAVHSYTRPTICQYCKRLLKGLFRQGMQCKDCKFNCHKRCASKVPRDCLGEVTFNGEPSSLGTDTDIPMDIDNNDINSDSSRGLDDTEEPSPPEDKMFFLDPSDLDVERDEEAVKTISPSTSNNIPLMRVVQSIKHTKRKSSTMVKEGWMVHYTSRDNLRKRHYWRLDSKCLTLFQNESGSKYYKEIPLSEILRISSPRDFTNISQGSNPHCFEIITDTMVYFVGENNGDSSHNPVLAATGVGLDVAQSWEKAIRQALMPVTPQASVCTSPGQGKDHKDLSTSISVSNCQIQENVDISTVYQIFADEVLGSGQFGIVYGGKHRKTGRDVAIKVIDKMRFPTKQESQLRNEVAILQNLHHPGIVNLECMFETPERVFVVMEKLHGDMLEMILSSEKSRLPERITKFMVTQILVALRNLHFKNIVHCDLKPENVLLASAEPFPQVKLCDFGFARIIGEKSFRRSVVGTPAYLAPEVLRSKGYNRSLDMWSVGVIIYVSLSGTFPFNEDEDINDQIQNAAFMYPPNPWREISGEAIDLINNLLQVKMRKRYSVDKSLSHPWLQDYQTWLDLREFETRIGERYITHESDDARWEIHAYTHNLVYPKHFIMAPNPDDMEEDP
Experiment [12] has as its target Rho-associated protein kinase 2 (Homo sapiens) (UniProt O75116). As to the kind of experiment: Inhibition of wild-type human partial length ROCK2 (M1 to T431 residues) expressed in mammalian expression system at 10 uM by Kinomescan method relative to control.
The target in experiment [13] is Bone morphogenetic protein receptor type-1A (Homo sapiens) (UniProt P36894). As to the kind of experiment: Inhibition of wild-type human partial length BMPR1A (Q214 to I532 residues) expressed in bacterial expression system at 1 uM by Kinomescan method relative to control.
Sequence of Bone morphogenetic protein receptor type-1A (Homo sapiens) (P36894 whole entry, the tested form may be a part): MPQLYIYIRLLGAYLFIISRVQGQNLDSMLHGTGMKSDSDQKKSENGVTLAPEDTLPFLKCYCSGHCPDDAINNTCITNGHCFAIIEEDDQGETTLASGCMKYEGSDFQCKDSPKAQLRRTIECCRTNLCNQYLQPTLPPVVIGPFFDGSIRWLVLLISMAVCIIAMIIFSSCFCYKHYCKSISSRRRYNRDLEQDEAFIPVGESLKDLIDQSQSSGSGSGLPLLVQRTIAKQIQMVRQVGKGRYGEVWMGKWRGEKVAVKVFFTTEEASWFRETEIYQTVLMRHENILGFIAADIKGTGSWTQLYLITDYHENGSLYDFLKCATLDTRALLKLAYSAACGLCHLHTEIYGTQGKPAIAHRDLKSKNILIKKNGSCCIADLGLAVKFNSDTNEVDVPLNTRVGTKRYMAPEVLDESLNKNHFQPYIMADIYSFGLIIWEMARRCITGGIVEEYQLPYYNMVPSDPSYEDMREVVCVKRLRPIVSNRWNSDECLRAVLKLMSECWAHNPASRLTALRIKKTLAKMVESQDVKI
Experiment [14] addresses Calcium/calmodulin-dependent protein kinase type IV (Homo sapiens) (UniProt Q16566). As to the kind of experiment: Inhibition of wild-type human partial length CAMK4 (A22 to A322 residues) expressed in bacterial expression system at 1 uM by Kinomescan method relative to control.
Experiment [15] deals with Dual specificity protein kinase CLK1 (Homo sapiens) (UniProt P49759). The experiment in a line: Inhibition of wild-type human full length CLK1 (M1 to I484 residues) expressed in bacterial expression system at 1 uM by Kinomescan method relative to control.
Sequence of Dual specificity protein kinase CLK1 (Homo sapiens) (P49759 whole entry, looked up, the tested form may be a part): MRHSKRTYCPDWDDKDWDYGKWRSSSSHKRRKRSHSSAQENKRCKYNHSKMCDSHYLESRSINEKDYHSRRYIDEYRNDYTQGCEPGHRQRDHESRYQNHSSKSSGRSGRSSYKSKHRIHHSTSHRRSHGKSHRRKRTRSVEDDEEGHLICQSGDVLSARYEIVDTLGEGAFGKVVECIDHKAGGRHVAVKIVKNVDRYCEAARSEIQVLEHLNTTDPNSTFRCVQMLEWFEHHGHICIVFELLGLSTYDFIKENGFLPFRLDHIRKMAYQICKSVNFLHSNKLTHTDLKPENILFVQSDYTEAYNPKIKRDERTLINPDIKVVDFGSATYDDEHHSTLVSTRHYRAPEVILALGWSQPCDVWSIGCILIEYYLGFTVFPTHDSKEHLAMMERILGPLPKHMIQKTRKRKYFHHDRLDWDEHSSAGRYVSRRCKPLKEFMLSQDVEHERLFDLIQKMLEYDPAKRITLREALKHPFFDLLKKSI
For experiment [16], the target named is Epithelial discoidin domain-containing receptor 1 (Homo sapiens) (UniProt Q08345). As to the kind of experiment: Inhibition of wild-type human partial length DDR1 (R565 to V876 residues) expressed in bacterial expression system at 1 uM by Kinomescan method relative to control.
Sequence of Epithelial discoidin domain-containing receptor 1 (Homo sapiens) (Q08345 whole entry, the tested form may be a part): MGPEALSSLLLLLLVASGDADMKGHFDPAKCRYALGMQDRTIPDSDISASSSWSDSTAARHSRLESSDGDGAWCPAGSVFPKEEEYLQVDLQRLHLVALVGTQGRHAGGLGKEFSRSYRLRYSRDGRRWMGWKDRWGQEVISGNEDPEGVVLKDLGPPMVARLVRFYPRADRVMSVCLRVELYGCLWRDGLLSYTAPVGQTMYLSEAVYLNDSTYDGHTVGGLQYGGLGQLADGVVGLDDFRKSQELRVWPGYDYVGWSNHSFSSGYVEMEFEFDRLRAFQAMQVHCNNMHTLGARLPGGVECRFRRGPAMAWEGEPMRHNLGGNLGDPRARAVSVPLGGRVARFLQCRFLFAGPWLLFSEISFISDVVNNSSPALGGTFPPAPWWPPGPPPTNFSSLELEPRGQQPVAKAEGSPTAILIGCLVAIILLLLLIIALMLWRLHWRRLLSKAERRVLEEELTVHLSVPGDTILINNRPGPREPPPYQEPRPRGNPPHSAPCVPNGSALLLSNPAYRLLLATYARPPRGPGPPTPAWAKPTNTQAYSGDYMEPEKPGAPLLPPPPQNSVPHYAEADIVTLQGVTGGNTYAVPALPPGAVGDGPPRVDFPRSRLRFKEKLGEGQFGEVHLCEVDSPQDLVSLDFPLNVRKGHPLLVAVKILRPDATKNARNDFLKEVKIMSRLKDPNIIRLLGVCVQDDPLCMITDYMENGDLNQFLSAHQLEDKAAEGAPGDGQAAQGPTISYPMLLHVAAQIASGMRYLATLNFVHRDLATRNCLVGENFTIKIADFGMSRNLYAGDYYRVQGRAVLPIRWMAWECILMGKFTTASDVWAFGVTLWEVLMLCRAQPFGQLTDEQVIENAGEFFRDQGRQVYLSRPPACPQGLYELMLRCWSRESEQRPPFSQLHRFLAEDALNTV
Experiment [17] concerns the target Serine/threonine-protein kinase 10 (Homo sapiens) (UniProt O94804). As to the kind of experiment: Inhibition of wild-type human partial length LOK (E16 to V314 residues) expressed in bacterial expression system at 1 uM by Kinomescan method relative to control.
The target in experiment [18] is Leukocyte tyrosine kinase receptor (Homo sapiens) (UniProt P29376). The experiment in a line: Inhibition of wild-type human partial length LTK (P422 to S744 residues) expressed in bacterial expression system at 1 uM by Kinomescan method relative to control.
Sequence of Leukocyte tyrosine kinase receptor (Homo sapiens) (P29376 whole entry, the tested form may be a part): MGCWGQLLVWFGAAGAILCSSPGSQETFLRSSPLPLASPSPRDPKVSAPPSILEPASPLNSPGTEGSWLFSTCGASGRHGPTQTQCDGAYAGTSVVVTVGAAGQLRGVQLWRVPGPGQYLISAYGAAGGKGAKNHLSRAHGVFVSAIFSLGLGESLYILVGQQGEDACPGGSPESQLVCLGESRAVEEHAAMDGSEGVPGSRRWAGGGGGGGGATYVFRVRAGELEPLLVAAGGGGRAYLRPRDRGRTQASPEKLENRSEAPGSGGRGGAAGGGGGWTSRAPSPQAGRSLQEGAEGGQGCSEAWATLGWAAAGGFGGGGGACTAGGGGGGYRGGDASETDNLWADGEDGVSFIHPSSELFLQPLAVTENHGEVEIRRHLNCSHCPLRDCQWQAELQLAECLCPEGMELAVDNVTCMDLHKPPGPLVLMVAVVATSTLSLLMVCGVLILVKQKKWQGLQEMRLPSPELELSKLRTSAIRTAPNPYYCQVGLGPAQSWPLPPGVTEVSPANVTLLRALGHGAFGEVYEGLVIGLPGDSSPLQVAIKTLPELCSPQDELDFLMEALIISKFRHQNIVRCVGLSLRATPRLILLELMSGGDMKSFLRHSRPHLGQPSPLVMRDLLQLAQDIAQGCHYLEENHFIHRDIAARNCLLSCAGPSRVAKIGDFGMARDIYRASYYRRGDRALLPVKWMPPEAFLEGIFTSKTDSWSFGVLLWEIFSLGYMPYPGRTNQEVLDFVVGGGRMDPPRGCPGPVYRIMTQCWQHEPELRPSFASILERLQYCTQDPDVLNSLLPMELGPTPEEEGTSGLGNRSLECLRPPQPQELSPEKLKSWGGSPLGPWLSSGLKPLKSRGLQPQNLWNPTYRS
Experiment [19] addresses Myosin-IIIb (Homo sapiens) (UniProt Q8WXR4). The experiment in a line: Inhibition of wild-type human partial length MYO3B (M1 to D357 residues) expressed in bacterial expression system at 1 uM by Kinomescan method relative to control.
Experiment [20] addresses Serine/threonine-protein kinase PAK 1 (Homo sapiens) (UniProt Q13153). As to the kind of experiment: Inhibition of wild-type human partial length PAK1 (S149 to H545 residues) expressed in bacterial expression system at 1 uM by Kinomescan method relative to control.
Experiment [21] concerns the target Cyclin-dependent kinase 18 (Homo sapiens) (UniProt Q07002). As to the kind of experiment: Inhibition of wild-type human full length PCTK3 (M3 to F474 residues) expressed in bacterial expression system at 1 uM by Kinomescan method relative to control.
Experiment [22] has as its target Phosphatidylinositol 4,5-bisphosphate 3-kinase catalytic subunit alpha isoform (Homo sapiens) (UniProt P42336). As to the kind of experiment: Inhibition of wild-type human partial length PIK3CA (R108 to N1068 residues) expressed in mammalian expression system at 1 uM by Kinomescan method relative to control.
For experiment [23], the target named is Serine/threonine-protein kinase pim-3 (Homo sapiens) (UniProt Q86V86). The experiment in a line: Inhibition of wild-type human partial length PIM3 (G16 to A317 residues) expressed in bacterial expression system at 1 uM by Kinomescan method relative to control.
Experiment [24] has as its target Protein kinase C delta type (Homo sapiens) (UniProt Q05655). As to the kind of experiment: Inhibition of wild-type human partial length PRKCD (Q328 to D676 residues) expressed in bacterial expression system at 1 uM by Kinomescan method relative to control.
The subject of experiment [25] is Proto-oncogene tyrosine-protein kinase receptor Ret (Homo sapiens), P07949 [V804L]. As to the kind of experiment: Inhibition of human partial length RET V804L mutant (E713 to D1014 residues) expressed in bacterial expression system at 1 uM by Kinomescan method relative to control.
Experiment [26] deals with Ribosomal protein S6 kinase alpha-5 (Homo sapiens) (UniProt O75582). The experiment in a line: Inhibition of wild-type human partial length C-terminal RPS6KA5 kinase domain 2 (V390 to T718 residues) expressed in bacterial expression system at 1 uM by Kinomescan method relative to control.
Experiment [27] deals with BDNF/NT-3 growth factors receptor (Homo sapiens) (UniProt Q16620). As to the kind of experiment: Inhibition of wild-type human partial length TRKB (Q547 to G838 residues) expressed in mammalian expression system at 1 uM by Kinomescan method relative to control.

Sequence of RAC-alpha serine/threonine-protein kinase (Homo sapiens) (P31749 whole entry, the tested form may be a part): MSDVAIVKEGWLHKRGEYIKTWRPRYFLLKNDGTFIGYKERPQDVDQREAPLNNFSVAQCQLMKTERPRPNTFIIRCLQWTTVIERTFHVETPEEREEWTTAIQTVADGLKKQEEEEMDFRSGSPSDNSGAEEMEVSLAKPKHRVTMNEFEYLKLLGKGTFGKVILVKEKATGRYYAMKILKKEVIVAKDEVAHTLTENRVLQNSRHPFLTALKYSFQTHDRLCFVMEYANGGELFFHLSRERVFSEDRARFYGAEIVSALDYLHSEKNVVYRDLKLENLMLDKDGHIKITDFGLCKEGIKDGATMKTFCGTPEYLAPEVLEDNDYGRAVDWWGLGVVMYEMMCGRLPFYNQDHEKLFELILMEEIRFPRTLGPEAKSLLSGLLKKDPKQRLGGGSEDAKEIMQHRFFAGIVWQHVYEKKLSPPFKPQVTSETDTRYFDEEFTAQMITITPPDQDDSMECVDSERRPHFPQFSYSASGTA
Sequence of Cyclin-dependent kinase 18 (Homo sapiens) (Q07002 whole entry, the tested form may be a part, canonical isoform): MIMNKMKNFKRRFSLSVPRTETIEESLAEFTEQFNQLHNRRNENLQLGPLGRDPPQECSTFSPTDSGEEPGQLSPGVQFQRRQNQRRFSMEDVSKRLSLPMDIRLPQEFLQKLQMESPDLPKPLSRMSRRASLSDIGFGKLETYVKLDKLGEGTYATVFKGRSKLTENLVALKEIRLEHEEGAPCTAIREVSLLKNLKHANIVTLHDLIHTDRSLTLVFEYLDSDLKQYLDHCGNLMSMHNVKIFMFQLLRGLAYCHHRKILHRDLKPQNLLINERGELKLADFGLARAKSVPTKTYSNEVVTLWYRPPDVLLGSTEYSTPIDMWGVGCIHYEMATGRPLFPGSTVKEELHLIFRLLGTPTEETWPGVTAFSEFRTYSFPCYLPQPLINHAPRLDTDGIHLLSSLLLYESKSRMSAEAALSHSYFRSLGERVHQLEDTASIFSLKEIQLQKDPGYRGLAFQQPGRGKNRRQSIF

For `O=C(Nc1cccc([C@H]2CCCN(c3ncnc4[nH]ccc34)C2)c1)Nc1ccccc1N1CCCC1`, the inhibition in experiment [1] worked out at 100%; in experiment [2], 57%; in [3], 97%; in [4] it was 74%; in [5], 81%; in [6], 100%. Further, the inhibition in experiment [7] is 4.2%; in experiment [8], 62%; in experiment [9] it was 69%; in [10] it was 100%; in experiment [11], 100%; in experiment [12] it was 49%.

Turning to `O=C(Nc1cccc([C@@H]2CN(c3ncnc4[nH]ccc34)CCN2CCO)c1)Nc1c(F)cccc1N1CCCC1`, the inhibition in experiment [13] worked out at 100%; in experiment [14], 100%; in experiment [15], 84%; in experiment [16], 82%; in [17], 11%; in experiment [18], 100%. Besides, the inhibition in [19] came to 94%; in experiment [20], 75%; in [21] it was 97%; in experiment [22], 100%; in [23] it was 89%; in [24], 85%. Besides, the inhibition in [25] was determined as 0.2%; in experiment [26] it was 96%; in experiment [27], 100%.
